# Active and inactive are the calls of the source. The rule behind the calls is not given here.
# Legend:
# [1] = Inhibition of bacterial Metallo-beta-lactamase IMP-1 using nitrocefin as substrate pre-incubated for 15 mins followed by substrate addition by microplate reader; parameters: species or system Bacteria
# Escherichia coli [2] = experiment: Antibacterial activity against Escherichia coli KB366 expressing IMP-1 assessed as inhibition of bacterial growth at 0.01 ug in absence of meropenem incubated overnight by paper disk method; type: functional, organism-based; settings: dose 0.01 µg
# Escherichia coli [3] = experiment: Antibacterial activity against Escherichia coli KB366 expressing IMP-1 assessed as inhibition of bacterial growth at 3 ug in absence of meropenem incubated overnight by paper disk method; type: functional, organism-based; settings: dose 3.0 µg
# Pseudomonas aeruginosa [4] = experiment: Antibacterial activity against Pseudomonas aeruginosa KB367 expressing IMP-1 assessed as inhibition of bacterial growth at 0.1 ug in absence of meropenem incubated overnight by paper disk method; type: functional, organism-based; settings: dose 0.1 µg
# Pseudomonas aeruginosa [5] = experiment: Antibacterial activity against Pseudomonas aeruginosa KB367 expressing IMP-1 assessed as inhibition of bacterial growth at 3 ug in presence of meropenem incubated overnight by paper disk method; type: functional; settings: dose 3.0 µg
# Pseudomonas aeruginosa [6] = experiment: Antibacterial activity against Pseudomonas aeruginosa KB367 expressing IMP-1 assessed as inhibition of bacterial growth at 3 ug in absence of meropenem incubated overnight by paper disk method; type: functional, organism-based; settings: dose 3.0 µg
# Pseudomonas aeruginosa [7] = experiment: Antibacterial activity against Pseudomonas aeruginosa KB367 expressing IMP-1 assessed as inhibition of bacterial growth at 0.3 ug in presence of meropenem incubated overnight by paper disk method; type: functional, organism-based; settings: dose 0.3 µg
# Escherichia coli [8] = experiment: Antibacterial activity against Escherichia coli KB366 expressing IMP-1 assessed as inhibition of bacterial growth at 1 ug in presence of meropenem incubated overnight by paper disk method; type: functional; settings: read-out: IZ
# Escherichia coli [9] = experiment: Antibacterial activity against Escherichia coli KB366 expressing IMP-1 assessed as inhibition of bacterial growth at 0.03 ug in absence of meropenem incubated overnight by paper disk method; type: functional, organism-based; settings: dose 0.03 µg
# Pseudomonas aeruginosa [10] = experiment: Antibacterial activity against Pseudomonas aeruginosa KB367 expressing IMP-1 assessed as inhibition of bacterial growth at 0.1 ug in presence of meropenem incubated overnight by paper disk method; type: functional, organism-based; settings: dose 0.1 µg
# Pseudomonas aeruginosa [11] = experiment: Antibacterial activity against Pseudomonas aeruginosa KB367 expressing IMP-1 assessed as inhibition of bacterial growth at 30 ug in presence of meropenem incubated overnight by paper disk method; type: functional; settings: read-out: IZ
# Escherichia coli [12] = experiment: Antibacterial activity against Escherichia coli KB366 expressing IMP-1 assessed as inhibition of bacterial growth at 10 ug in presence of meropenem incubated overnight by paper disk method; type: functional; settings: read-out: IZ
# Pseudomonas aeruginosa [13] = experiment: Antibacterial activity against Pseudomonas aeruginosa KB367 expressing IMP-1 assessed as inhibition of bacterial growth at 10 ug in absence of meropenem incubated overnight by paper disk method; type: functional, organism-based; settings: dose 10.0 µg
# Escherichia coli [14] = experiment: Antibacterial activity against Escherichia coli KB366 expressing IMP-1 assessed as inhibition of bacterial growth at 30 ug in absence of meropenem incubated overnight by paper disk method; type: functional, organism-based; settings: dose 30.0 µg
# Pseudomonas aeruginosa [15] = experiment: Antibacterial activity against Pseudomonas aeruginosa KB367 expressing IMP-1 assessed as inhibition of bacterial growth at 30 ug in absence of meropenem incubated overnight by paper disk method; type: functional, organism-based; settings: dose 30.0 µg
# Escherichia coli [16] = experiment: Antibacterial activity against Escherichia coli KB366 expressing IMP-1 assessed as inhibition of bacterial growth at 0.1 ug in absence of meropenem incubated overnight by paper disk method; type: functional, organism-based; settings: dose 0.1 µg
# Escherichia coli [17] = experiment: Antibacterial activity against Escherichia coli KB366 expressing IMP-1 assessed as inhibition of bacterial growth at 1 ug in absence of meropenem incubated overnight by paper disk method; type: functional, organism-based; settings: dose 1.0 µg
# Pseudomonas aeruginosa [18] = experiment: Antibacterial activity against Pseudomonas aeruginosa KB367 expressing IMP-1 assessed as inhibition of bacterial growth at 1 ug in presence of meropenem incubated overnight by paper disk method; type: functional; settings: dose 1.0 µg
# Escherichia coli [19] = experiment: Antibacterial activity against Escherichia coli KB366 expressing IMP-1 assessed as inhibition of bacterial growth at 3 ug in presence of meropenem incubated overnight by paper disk method; type: functional; settings: read-out: IZ
# Escherichia coli [20] = experiment: Antibacterial activity against Escherichia coli KB366 expressing IMP-1 assessed as inhibition of bacterial growth at 0.3 ug in presence of meropenem incubated overnight by paper disk method; type: functional; settings: read-out: IZ
# Escherichia coli [21] = experiment: Antibacterial activity against Escherichia coli KB366 expressing IMP-1 assessed as inhibition of bacterial growth at 0.01 ug in presence of meropenem incubated overnight by paper disk method; type: functional
# Escherichia coli [22] = experiment: Antibacterial activity against Escherichia coli KB366 expressing IMP-1 assessed as inhibition of bacterial growth at 0.1 ug in presence of meropenem incubated overnight by paper disk method; type: functional
# Escherichia coli [23] = experiment: Antibacterial activity against Escherichia coli KB366 expressing IMP-1 assessed as inhibition of bacterial growth at 0.3 ug in absence of meropenem incubated overnight by paper disk method; type: functional, organism-based; settings: dose 0.3 µg
# Pseudomonas aeruginosa [24] = experiment: Antibacterial activity against Pseudomonas aeruginosa KB367 expressing IMP-1 assessed as inhibition of bacterial growth at 100 ug in absence of meropenem incubated overnight by paper disk method; type: functional, organism-based; settings: dose 100.0 µg
# Escherichia coli [25] = experiment: Antibacterial activity against Escherichia coli KB366 expressing IMP-1 assessed as inhibition of bacterial growth at 0.03 ug in presence of meropenem incubated overnight by paper disk method; type: functional
# Pseudomonas aeruginosa [26] = experiment: Antibacterial activity against Pseudomonas aeruginosa KB367 expressing IMP-1 assessed as inhibition of bacterial growth at 10 ug in presence of meropenem incubated overnight by paper disk method; type: functional
# Pseudomonas aeruginosa [27] = experiment: Antibacterial activity against Pseudomonas aeruginosa KB367 expressing IMP-1 assessed as inhibition of bacterial growth at 1 ug in absence of meropenem incubated overnight by paper disk method; type: functional, organism-based; settings: dose 1.0 µg
# Escherichia coli [28] = experiment: Antibacterial activity against Escherichia coli KB366 expressing IMP-1 assessed as inhibition of bacterial growth at 10 ug in absence of meropenem incubated overnight by paper disk method; type: functional, organism-based; settings: dose 10.0 µg
# Pseudomonas aeruginosa [29] = experiment: Antibacterial activity against Pseudomonas aeruginosa KB367 expressing IMP-1 assessed as inhibition of bacterial growth at 0.3 ug in absence of meropenem incubated overnight by paper disk method; type: functional, organism-based; settings: dose 0.3 µg
# Escherichia coli [30] = experiment: Antibacterial activity against Escherichia coli KB366 expressing IMP-1 assessed as inhibition of bacterial growth at 100 ug in absence of meropenem incubated overnight by paper disk method; type: functional, organism-based; settings: dose 100.0 µg
# Pseudomonas aeruginosa [31] = experiment: Antibacterial activity against Pseudomonas aeruginosa KB367 expressing IMP-1 assessed as inhibition of bacterial growth at 100 ug in presence of meropenem incubated overnight by paper disk method; type: functional; settings: read-out: IZ
# Escherichia coli [32] = experiment: Antibacterial activity against Escherichia coli KB366 expressing IMP-1 assessed as inhibition of bacterial growth at 100 ug in presence of meropenem incubated overnight by paper disk method; type: functional; settings: read-out: IZ
# Escherichia coli [33] = experiment: Antibacterial activity against Escherichia coli KB366 expressing IMP-1 assessed as inhibition of bacterial growth at 30 ug in presence of meropenem incubated overnight by paper disk method; type: functional; settings: read-out: IZ
Structure (SMILES),IC50 [1] [µg/mL],inhibition zone (IZ) (Escherichia coli [2]),inhibition zone (IZ) (Escherichia coli [3]),inhibition zone (IZ) (Pseudomonas aeruginosa [4]),inhibition zone (IZ) (Pseudomonas aeruginosa [5]),inhibition zone (IZ) (Pseudomonas aeruginosa [6]),inhibition zone (IZ) (Pseudomonas aeruginosa [7]),zone of inhibition at 1 µg/disc (Escherichia coli [8]) [mm],inhibition zone (IZ) (Escherichia coli [9]),inhibition zone (IZ) (Pseudomonas aeruginosa [10]),zone of inhibition at 30 µg/disc (Pseudomonas aeruginosa [11]) [mm],zone of inhibition at 10 µg/disc (Escherichia coli [12]) [mm],inhibition zone (IZ) (Pseudomonas aeruginosa [13]),inhibition zone (IZ) (Escherichia coli [14]),inhibition zone (IZ) (Pseudomonas aeruginosa [15]),inhibition zone (IZ) (Escherichia coli [16]),inhibition zone (IZ) (Escherichia coli [17]),inhibition zone (IZ) (Pseudomonas aeruginosa [18]),zone of inhibition at 3 µg/disc (Escherichia coli [19]) [mm],zone of inhibition at 0.3 µg/disc (Escherichia coli [20]) [mm],further results
CC/C=C/C1=C(CCC(=O)O)C(=O)OC1=O,67.3,,,,,,,,,,,,,,,,,,,,
CC/C=C/C1=C(CCCOC(C)=O)C(=O)OC1=O,5.9,,,,,,,,,,,,,,,,,,,,
CC/C=C/C1=C(CCC)C(=O)OC1=O,3,inactive,inactive,inactive,inactive,inactive,inactive,17,inactive,inactive,10,24,inactive,inactive,inactive,inactive,inactive,inactive,18,15,zone of inhibition at 0.01 µg/disc (Escherichia coli [21]; read-out: IZ): 9 mm; zone of inhibition at 0.1 µg/disc (Escherichia coli [22]; read-out: IZ): 13 mm; inhibition zone (IZ) (Escherichia coli [23]): inactive; inhibition zone (IZ) (Pseudomonas aeruginosa [24]): inactive; zone of inhibition at 0.03 µg/disc (Escherichia coli [25]; read-out: IZ): 9 mm; inhibition zone (IZ) (Pseudomonas aeruginosa [26]; dose 10.0 µg): inactive; inhibition zone (IZ) (Pseudomonas aeruginosa [27]): inactive; inhibition zone (IZ) (Escherichia coli [28]): inactive; inhibition zone (IZ) (Pseudomonas aeruginosa [29]): inactive
CC/C=C/C1=C(c2ccc(O)c(O)c2)C(=O)OC1=O,3.74,inactive,inactive,inactive,inactive,inactive,inactive,16,inactive,inactive,14,23,inactive,inactive,inactive,inactive,inactive,inactive,18,11,inhibition zone (IZ) (Escherichia coli [30]): inactive; zone of inhibition at 100 µg/disc (Pseudomonas aeruginosa [31]): 18 mm; inhibition zone (IZ) (Escherichia coli [21]; dose 0.01 µg): inactive; inhibition zone (IZ) (Escherichia coli [22]; dose 0.1 µg): inactive; inhibition zone (IZ) (Escherichia coli [23]): inactive; inhibition zone (IZ) (Pseudomonas aeruginosa [24]): inactive; zone of inhibition at 100 µg/disc (Escherichia coli [32]): 31 mm; inhibition zone (IZ) (Escherichia coli [25]; dose 0.03 µg): inactive; zone of inhibition at 30 µg/disc (Escherichia coli [33]): 27 mm; zone of inhibition at 10 µg/disc (Pseudomonas aeruginosa [26]; read-out: IZ): 9 mm; inhibition zone (IZ) (Pseudomonas aeruginosa [27]): inactive; inhibition zone (IZ) (Escherichia coli [28]): inactive; inhibition zone (IZ) (Pseudomonas aeruginosa [29]): inactive
